Data as given in article PMC9329436, “Optimization of the 4-anilinoquin(az)oline scaffold as epidermal growth factor receptor (EGFR) inhibitors for chordoma utilizing a toxicology profiling assay platform” (Scientific Reports, 2022).

System: HL60 cells
Experiment: AsedaSciences SYSTEMETRIC Cell Health Screen (flow cytometry toxicity profiling)
Details: HL60, 4 h, 5 nM–100 µM; for CC: Cell Cycle score / CM: Cell morphology score / CMI: Cell membrane integrity score / MMP: Mitochondrial membrane depolarization score / ROS: Reactive superoxide species score / GSH: Glutathione score / NMI1: Nuclear membrane integrity 1 score / NMI2: Nuclear membrane integrity 2 score: probability 0–1, n = 2; for CHI: Cell Health Index: probability (0–1) of high-risk class, n = 2
Description: To prioritize further optimization, in addition to cellular potency, we utilized the AsedaSciences® […]® Cell Health Screen. This live cell flow cytometry (FC) screen was developed to assess human safety risk for candidate pharmaceutical small molecules at the early hit-to-lead stage of development. The screen works by estimating the risk using a supervised machine learning (ML) classifier to assess a multiparametric cellular stress phenotype, produced by the test compound, relative to a training set of known compounds (Table S1). This screen has been designed for early pipeline risk estimation regardless of pharmaceutical class/disease type, so it uses HL60 as the reporter cell line.
The ML classifier was trained with 300 historically known compounds (on market or withdrawn drugs, research compounds, etc.), which were divided into two outcome classes based upon literature, clinical trials, and market histories where applicable. This external curation informed an outcome of “high-risk” or “low-risk”. All 300 compounds were also processed through the automated FC screen, populating each of the two classes with frequency distributions of empirical cell-based phenotypes.
To estimate human safety risk for an unknown compound, the ML classifier assesses the similarity of the test compound’s cell-based phenotype to the distributions of phenotypes in the two outcome classes. […] Phenotypes are derived from twelve FC detection parameters, including light scatter and a series of fluorescent physiological reporter dyes, that track cell stress-related endpoints.
To produce the Cell Health Index, the ML classifier uses all twelve FC parameters simultaneously in a multidimensional logistic regression model, so the CHI contains the most predictive power. In addition to the Cell Health Index, Table 4 also reports probability scores for eight cell stress-related endpoints. These scores are produced individually by passing information to the ML classifier relating to parameters that inform that endpoint. For example, to produce the cell morphology (CM) score, the ML classifier only uses the FC detection parameters for forward scatter (informing change in cell diameter) and side scatter (informing change in optical granularity of the cell) to inform the model. Together, these eight endpoints provide a “biological fingerprint”, allowing assessment of the degree to which SAR series members behave differently across endpoints.
In a 384-well platform, HL60 cells were exposed to a 10-step, 3 × dilution series of each test compound (5 nM–100 µM) for 4 h at 37 °C with 5% CO2. Each dilution series was screened in duplicate, occupying a total of 20 wells, allowing 16 test compounds to be assayed per plate. Each row contained one positive and one negative control well, for a total of 16 replicate positive/negative control pairs on each assay plate. Compound formatting, cell deposition, and dye application were performed robotically so that final assay conditions comprised 100,000 cells in a 40 µL volume. After the 4 h compound exposure, cells were immediately stained with a panel of fluorescent dyes that report physiological signatures of both mitochondrial dysfunction and gross cell stress. Fluorescence and forward/side-scatter data were collected using automated FC with no gating. FC data are processed by an automated algorithm for producing quality control measures and ML classification of compound phenotypes. • 2. HL60 cell culture production
HL60 cells were produced as suspension cultures in glass 850 cm^2 roller bottles with vented caps, at 1 RPM, 5% CO2, and 37 °C. […] Culture density was maintained at or below 1 × 10^6 cells/mL.

## CC(C)(C(=O)O)c1ccc(C(O)CCCN2CCC(C(O)(c3ccccc3)c3ccccc3)CC2)cc1 (stereo not shown) [Fexofenadine, reference compound]
  CC: Cell Cycle score: 0.020
  CM: Cell morphology score: 0.00
  CMI: Cell membrane integrity score: 0.040
  MMP: Mitochondrial membrane depolarization score: 0.020
  ROS: Reactive superoxide species score: 0.16

## O=C(O)c1cc(/N=N/c2ccc(S(=O)(=O)Nc3ccccn3)cc2)ccc1O [Sulfasalazine, reference compound]
  CC: Cell Cycle score: 0.10
  CM: Cell morphology score: 0.010
  CMI: Cell membrane integrity score: 0.060
  GSH: Glutathione score: 0.030
  MMP: Mitochondrial membrane depolarization score: 0.31
  NMI1: Nuclear membrane integrity 1 score: 0.14
  NMI2: Nuclear membrane integrity 2 score: 0.63
  ROS: Reactive superoxide species score: 0.090

## COc1ccc2cc3[n+](cc2c1OC)CCc1cc2c(cc1-3)OCO2 [Berberine, reference compound]
  CC: Cell Cycle score: 0.99
  CM: Cell morphology score: 0.99
  CMI: Cell membrane integrity score: 0.050
  GSH: Glutathione score: 0.93
  MMP: Mitochondrial membrane depolarization score: 1.00
  NMI1: Nuclear membrane integrity 1 score: 0.99
  NMI2: Nuclear membrane integrity 2 score: 0.97
  ROS: Reactive superoxide species score: 1.00
  CHI: Cell Health Index: 0.82

## CCC(C)(C)C(=O)O[C@H]1C[C@@H](C)C=C2C=C[C@H](C)[C@H](CC[C@@H]3C[C@@H](O)CC(=O)O3)[C@H]21 [Simvastatin, reference compound]
  CC: Cell Cycle score: 0.12
  CM: Cell morphology score: 0.030
  CMI: Cell membrane integrity score: 0.080
  GSH: Glutathione score: 0.41
  MMP: Mitochondrial membrane depolarization score: 0.060
  NMI1: Nuclear membrane integrity 1 score: 0.29
  NMI2: Nuclear membrane integrity 2 score: 0.10
  ROS: Reactive superoxide species score: 0.11

## CCc1nn(CCCN2CCN(c3cccc(Cl)c3)CC2)c(=O)n1CCOc1ccccc1 [Nefazodone, reference compound]
  CC: Cell Cycle score: 0.97
  CM: Cell morphology score: 0.97
  CMI: Cell membrane integrity score: 1.00
  GSH: Glutathione score: 0.99
  MMP: Mitochondrial membrane depolarization score: 1.00
  NMI1: Nuclear membrane integrity 1 score: 0.73
  NMI2: Nuclear membrane integrity 2 score: 0.87
  ROS: Reactive superoxide species score: 1.00
  CHI: Cell Health Index: 0.78

## COc1ccc(/C=C/C(=O)Nc2ccccc2C(=O)O)cc1OC [Tranilast, reference compound]
  CC: Cell Cycle score: 0.10
  CM: Cell morphology score: 0.020
  CMI: Cell membrane integrity score: 0.13
  GSH: Glutathione score: 0.030
  MMP: Mitochondrial membrane depolarization score: 0.17
  NMI1: Nuclear membrane integrity 1 score: 0.73
  NMI2: Nuclear membrane integrity 2 score: 0.30
  ROS: Reactive superoxide species score: 0.12
  CHI: Cell Health Index: 0.32

## CC(C)(C)c1ccc(C(O)CCCN2CCC(C(O)(c3ccccc3)c3ccccc3)CC2)cc1 (stereo not shown) [Terfenadine, reference compound]
  CC: Cell Cycle score: 0.98
  CM: Cell morphology score: 1.00
  CMI: Cell membrane integrity score: 1.00
  GSH: Glutathione score: 1.00
  MMP: Mitochondrial membrane depolarization score: 1.00
  ROS: Reactive superoxide species score: 1.00

## CC(C)NCC(O)COc1cccc2ccccc12 (stereo not shown) [Propranolol, reference compound]
  CC: Cell Cycle score: 0.24
  CM: Cell morphology score: 0.060
  CMI: Cell membrane integrity score: 0.20
  GSH: Glutathione score: 0.11
  MMP: Mitochondrial membrane depolarization score: 0.010
  NMI1: Nuclear membrane integrity 1 score: 0.69
  NMI2: Nuclear membrane integrity 2 score: 0.23
  ROS: Reactive superoxide species score: 0.18

## CC1(C)NC(=O)N(c2ccc([N+](=O)[O-])c(C(F)(F)F)c2)C1=O [Nilutamide, reference compound]
  CC: Cell Cycle score: 0.68
  CM: Cell morphology score: 0.040
  CMI: Cell membrane integrity score: 0.060
  GSH: Glutathione score: 0.040
  MMP: Mitochondrial membrane depolarization score: 0.42
  NMI1: Nuclear membrane integrity 1 score: 0.21
  NMI2: Nuclear membrane integrity 2 score: 0.52
  ROS: Reactive superoxide species score: 0.090
  CHI: Cell Health Index: 0.34

## CCOC(=O)N1CCC(=C2c3ccc(Cl)cc3CCc3cccnc32)CC1 [Loratadine, reference compound]
  CC: Cell Cycle score: 0.84
  CM: Cell morphology score: 0.36
  CMI: Cell membrane integrity score: 0.70
  MMP: Mitochondrial membrane depolarization score: 0.65
  ROS: Reactive superoxide species score: 0.85

## CSc1ccc2c(c1)N(CCC1CCCCN1C)c1ccccc1S2 (stereo not shown) [Thioridazine, reference compound]
  CC: Cell Cycle score: 0.89
  CM: Cell morphology score: 1.00
  CMI: Cell membrane integrity score: 1.00
  GSH: Glutathione score: 1.00
  MMP: Mitochondrial membrane depolarization score: 1.00
  NMI1: Nuclear membrane integrity 1 score: 1.00
  NMI2: Nuclear membrane integrity 2 score: 1.00
  ROS: Reactive superoxide species score: 1.00
  CHI: Cell Health Index: 0.85

## NC(=O)c1ncn([C@@H]2O[C@H](CO)[C@@H](O)[C@H]2O)n1 [Ribavirin, reference compound]
  CC: Cell Cycle score: 0.040
  CM: Cell morphology score: 0.010
  CMI: Cell membrane integrity score: 0.070
  GSH: Glutathione score: 0.060
  MMP: Mitochondrial membrane depolarization score: 0.000
  NMI1: Nuclear membrane integrity 1 score: 0.16
  NMI2: Nuclear membrane integrity 2 score: 0.030
  ROS: Reactive superoxide species score: 0.23
  CHI: Cell Health Index: 0.16

## CS(=O)(=O)CCNCc1ccc(-c2ccc3ncnc(Nc4ccc(OCc5cccc(F)c5)c(Cl)c4)c3c2)o1 [Lapatinib, reference compound]
  CC: Cell Cycle score: 0.93
  CM: Cell morphology score: 1.00
  CMI: Cell membrane integrity score: 1.00
  GSH: Glutathione score: 0.96
  MMP: Mitochondrial membrane depolarization score: 1.00
  NMI1: Nuclear membrane integrity 1 score: 0.97
  NMI2: Nuclear membrane integrity 2 score: 0.92
  ROS: Reactive superoxide species score: 0.90
  CHI: Cell Health Index: 0.89

## Cc1ccc(N(CC2=NCCN2)c2cccc(O)c2)cc1 [Phentolamine, reference compound]
  CC: Cell Cycle score: 0.040
  CM: Cell morphology score: 0.00
  CMI: Cell membrane integrity score: 0.16
  GSH: Glutathione score: 0.17
  MMP: Mitochondrial membrane depolarization score: 0.29
  NMI1: Nuclear membrane integrity 1 score: 0.64
  NMI2: Nuclear membrane integrity 2 score: 0.79
  ROS: Reactive superoxide species score: 0.11

## O=C1CC2(CCCC2)CC(=O)N1CCCCN1CCN(c2ncccn2)CC1 [Buspirone, reference compound]
  CC: Cell Cycle score: 0.11
  CM: Cell morphology score: 0.060
  CMI: Cell membrane integrity score: 0.040
  GSH: Glutathione score: 0.080
  MMP: Mitochondrial membrane depolarization score: 0.020
  NMI1: Nuclear membrane integrity 1 score: 0.070
  NMI2: Nuclear membrane integrity 2 score: 0.040
  ROS: Reactive superoxide species score: 0.05
  CHI: Cell Health Index: 0.22

## CCCCc1oc2ccccc2c1C(=O)c1cc(I)c(OCCN(CC)CC)c(I)c1 [Amiodarone, reference compound]
  CC: Cell Cycle score: 0.96
  CM: Cell morphology score: 0.97
  CMI: Cell membrane integrity score: 0.80
  MMP: Mitochondrial membrane depolarization score: 0.87
  ROS: Reactive superoxide species score: 0.19

## CN(C)CCOC(c1ccccc1)c1ccccc1 [Diphenhydramine, reference compound]
  CC: Cell Cycle score: 0.030
  CM: Cell morphology score: 0.010
  CMI: Cell membrane integrity score: 0.030
  MMP: Mitochondrial membrane depolarization score: 0.030
  ROS: Reactive superoxide species score: 0.040
